Results on three compounds are retold here after patent US20120283269A1, “Method and Compositions for Suppression of Aging” (HEALTH RESEARCH INC., priority 2009, published 2012).

Bounds are passed on as bounds.

One assay has as its system HT-p21-9 cells. The following applies: previously reported (Demidenko 2009); cited from earlier work.
The subject of assay [1] is mTOR pathway. The settings on record: previously reported (Demidenko 2009); cited from earlier work.
The subject of a further assay is WI-38-tert cells. The assay is described as follows: Senescence / quiescence in WI-38-tert fibroblasts. The class given is cell-based, human. The following applies: compound alone. The procedure:
(§1) FIG. 4. […] HT-p21-a cells were treated with IPTG and infected with Ad-p53. After 3 days, cells were photographed (original magnification ×200): Upper panel. Under blue light to visualize cells expressing p53 (green cells). Lower panel. Under visible light to visualize all cells. Red arrows indicate cells lacking p53 expression. All of these cells show large, flat cell morphology. Green arrows indicate cells expressing p53. b-d. […] After 1 day, cells were lysed and immunoblot was performed as described in Methods for Example 1. c. […] Cells were then stained for beta-Gal activity and microphotographed. Scale bar—50 μm.d. […] Cells were then trypsinized and counted. […] Results are shown as percent of control.
FIG. 11. Effects of Ad-p21 and Ad-p53 on senescent morphology in WI-38-tert fibroblasts. WI-38-tert cells were infected with either p21-expressing adenovirus (Ad-p21) or p53-expressing adenovirus (Ad-p53) or both. After 3 days, cells were stained for beta-Gal.
Cell lines and reagents. HT-p21-9 and HT-p21-a cells are derivatives of HT1080 human fibrosarcoma cells, where p21 expression can be turned on or off using isopropyl-thio-galactosidase (IPTG) (7, 16, 28, 29, 36). […] HT-p16 cells are derivatives of HT1080 cells in which p16 expression can be turned on or off using IPTG (16, 36). WI-38-Tert, WI-38 are fibroblasts immortalized by telomerase. HT-p21-GSE56 cells: p53 inhibiting peptide GSE56 (18) was introduced into HT1080 p21-9 cells via a retroviral vector LXSE (37). Cells were grown in high glucose DMEM with 10% FC2 serum. WI-38-tert cells were grown in low glucose DMEM with 10% FCS. Rapamycin was obtained from LC Laboratories (Woburn, Mass.). IPTG (final concentration of 50 μg/ml) and FC2 were obtained from Sigma-Aldrich (St. Louis, Mo.).
Beta-galactosidase staining Beta-gal staining was performed using Senescence-galactosidase staining kit (Cell Signaling Technology).

For assay [2], the system named is mTOR pathway. The assay is described as follows: Immunoblot for p53, p-S6, p-S6K in WI-38-tert fibroblasts. The class given is cell-based, human. The protocol: as §1
FIG. 12. […] Immunoblot for p53, p-S6, p-S6K, S6 and actin was performed as described in Methods for Example 1.
Immunoblot analysis. Proteins were separated on 4-15% gradient Tris-HCl gels (Bio-Rad). The following antibodies were used: mouse anti-actin from Santa Cruz Biotechnology, rabbit anti-phospho-S6 (Ser240/244) and (Ser235/236), mouse anti-S6, mouse anti-phospho-p70 S6 kinase (Thr389), mouse anti-p21 and anti-p53, rabbit anti-phospho-4E-BP1 (Thr37/46) from Cell Signaling; mouse anti-4E-BP1 from Invitrogen, mouse anti-p53 (Ab-6) from Calbiochem.
On the technique in general: Immunoblotting shows a protein as a band on a membrane.

Assay [3] relates to HT-p21 cells. Nature of the assay: Cellular hypertrophy (protein and GFP per cell) in IPTG-treated HT-p21 cells, rapamycin dose response. The following applies: this particular cell line. The class given is cell-based, human. The protocol: (§2) FIG. 18. Correlation between S6 phosphorylation, hypertrophy and loss of proliferative potential in senescent cells. HT-p21 cells were plated in 6 well plates and treated with IPTG plus the increasing concentrations of rapamycin (from 0.16 to 500 nM). At concentration 0, cells were treated with IPTG alone. A. Cellular hypertrophy: protein and GFP. After 3 days, soluble protein and GFP were measured per well. [Note: in non-proliferating cells, protein/well is a measure of protein/cells]. Results are shown as percent of IPTG alone (0) without rapamycin. B. After 3 days, cells were lysed and immunobloted for p-S6, S6 and p21.
Cell lines and reagents. In HT-p21 cells, p21 expression can be turned on or off using […] (IPTG). HT-p21 cells were cultured in DMEM medium supplemented with FC2 serum. Rapamycin was obtained from LC Laboratories and dissolved in DMSO as 2 mM solution and was used at final concentration of 500 nM, unless otherwise indicated. IPTG and FC2 were obtained from Sigma-Aldrich (St. Louis, Mo.). IPTG was dissolved in water as 50 mg/ml stock solution and used in cell culture at final concentration of 50 μg/ml.

The test system of assay [4] is S6 phosphorylation, a marker of mTOR activity. Nature of the assay: Immunoblot for p-S6, S6 and p21 in IPTG-treated HT-p21 cells, rapamycin. The class given is cell-based, human. The following applies: IPTG plus rapamycin, 3 days. The protocol: as §2
FIG. 24. Induction of p21 by IPTG. HT-p21 cells were plated in 6 well plates and treated with IPTG with or without rapamycin as indicated. The next day, cells were lysed and immunoblot for p-S6, S and p21 was performed as described in Methods.
Immunoblot analysis. Cells were lysed and soluble proteins were harvested as previously described. […] Cells were counted on a Coulter Z1 cell counter (Hialeah, Fla.). […] Plates were photographed and the number of colonies were determined as previously described. […] Thereafter, cells were washed in PBS, and the number of -galactosidase activity-positive cells (blue staining) were counted under bright field illumination.

For assay [5], the system named is HT-p21 cells. Nature of the assay: Preservation of proliferative competence (PC), cell counting after wash. Format: cell-based, human. The protocol:
C. PC: preservation of proliferative competence. After 3 days, cells were washed to remove IPTG and RAPA. Cells were incubated for additional 5 days in the fresh medium and then were counted. Results are shown as percent of IPTG alone (0) without rapamycin.
FIG. 20. The dynamics of cell numbers. 500 HT-p21 cells were plated in 12 well plates. On the next day, either IPTG alone (I) or IPTG plus rapamycin (I+R) were added. After 3 days, plates were washed (I/w and I+R/w) or left unwashed. Cells were counted at days 1, 3, 6 and 9. Upper panel: linear-scale. Lower panel: log-scale. Open and closed squares: IPTG and IPTG plus Rapa, respectively. Open and closed circles: IPTG washed (I/w) and IPTG plus Rapa washed (I+R/w), respectively.
Immunoblot analysis. Cells were lysed and soluble proteins were harvested as previously described. Immunoblot analysis was performed using mouse monoclonal anti-p21, mouse monoclonal anti-phospho-S6 Ser240/244 (Cell Signaling, MA, USA), rabbit polyclonal anti-S6 (Cell Signaling, MA, USA) and mouse monoclonal anti-tubulin Ab as previously described. Cell counting. Cells were counted on a Coulter Z1 cell counter (Hialeah, Fla.). […] Plates were photographed and the number of colonies were determined as previously described. […] Thereafter, cells were washed in PBS, and the number of -galactosidase activity-positive cells (blue staining) were counted under bright field illumination.

In assay [6] the test system is HT-p21 cells. The assay is described as follows: Colony formation assay after IPTG with or without rapamycin. The following applies: IPTG plus rapamycin 3 days, washed; versus IPTG alone. Format: cell-based, human.

Consider `N#CC(=C(/N)Sc1ccccc1N)/C(C#N)=C(\N)Sc1ccccc1N` [U0126], for which the cellular senescence entry in the assay with HT-p21-9 cells is “suppress cellular senescence”. Also, the “mTOR pathway in HT-p21-9 cells, measured by phosphorylation of S6” value in the assay with mTOR pathway [1] was “deactivate the mTOR pathway”.

For `COc1cccc2c1C(=O)c1c(O)c3c(c(O)c1C2=O)C[C@@](O)(C(=O)CO)C[C@@H]3O[C@H]1C[C@H](N)[C@H](O)[C@H](C)O1` [doxorubicin], the “type of arrest in WI-38-tert cells” value in the assay with WI-38-tert cells is reported as “caused senescence in WI-38-tert cells”. In the assay on mTOR pathway [2], the “inhibition of mTOR” value was “does not inhibit mTOR”.

Regarding `CO[C@H]1C[C@@H]2CC[C@@H](C)[C@@](O)(O2)C(=O)C(=O)N2CCCC[C@H]2C(=O)O[C@H]([C@H](C)C[C@@H]2CC[C@@H](O)[C@H](OC)C2)CC(=O)[C@H](C)/C=C(\C)[C@@H](O)[C@@H](OC)C(=O)[C@H](C)C[C@H](C)/C=C/C=C/C=C/1C` [rapamycin], the “concentration required for anti-hypertrophic effects” value with HT-p21 cells [3] fell in the range of 100 to 500 nM. In assay [4], the “concentrations that inhibited S6 phosphorylation” value is reported as at least 20 nM. In addition, the “doubling time of the competent cells” value in the assay with HT-p21 cells [5] (I/w and I+R/w conditions) was 20 to 24 h. Moreover, the “PC (preservation of competence)” value in the assay on HT-p21 cells [5] (IPTG plus rapamycin 3 days, washed, 5 more days, percent of IPTG alone) was found to be 800%. For the same compound, in the assay on HT-p21 cells [6], the “increase in number of colonies (number of competent cells)” value is around 10 fold.
